In patent US20240409585A1, “MACROCYCLIC IMMUNOMODULATORS” (priority 2021, published 2024) one finds IC50 data, which are given here for five compounds.

This test addresses T1, Alexa fluor-647 labeled human PD-L1-Ig binding to Jurkat cell line over-expressing human PD-1 (Homo sapiens, UniProt Q15116).
T1 construct: expressed in transfected cells; host or cells: Jurkat
In words: Jurkat-PD-1 Cell Binding High-Content Screening Assay (CBA): Method 3 (Alexa fluor-647 labeled PD-L1-Ig). As to conditions: Jurkat-PD-1 cells, Alexa fluor-647 labeled PD-L1-Ig 177 nM. In outline: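 Jurkat cells over-expressing human PD-1 in RPMI/10% FCS were preincubated 2 h at 37 °C with compound, then exposed 1 h to Alexa fluor-647 labeled human PD-L1-Ig (177 nM final). Cells fixed in 4% paraformaldehyde with Hoechst 33342 and binding quantified by high-content imaging.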

The mark [1] stands for this setting: head μM, read-out: CBA Method 3 μM.

Structures are written as SMILES. Like-named read-outs stand apart in the source and are kept apart here. Numbered stars: 1 amine (or outer) side, 2 acyl side, 3 side chain; on linkers, the order of the positions; unused ones are H or OH. Bridge positions count the residues as written; N and C are the ends. Square brackets hold non-standard residues; d marks the D form. Peptide text beside a SMILES is read from it. * marks the point of attachment. Bip(4'-NHAc) = CC(=O)Nc1ccc(-c2ccc(C[C@H](N)C(=O)O)cc2)cc1; Phe(3-CF3) = N[C@@H](Cc1cccc(C(F)(F)F)c1)C(=O)O; Phe(4-CONH2) = NC(=O)c1ccc(C[C@H](N)C(=O)O)cc1; Phe(4-COOH) = N[C@@H](Cc1ccc(C(=O)O)cc1)C(=O)O; X5 = CS(=O)(=O)NC(=O)C[C@H](N[*:1])C(=O)[*:2]; Bip = N[C@@H](Cc1ccc(-c2ccccc2)cc1)C(=O)O; Phe(3-Me) = Cc1cccc(C[C@H](N)C(=O)O)c1; Val(3-OH) = CC(C)(O)[C@H](N)C(=O)O; hPhe = N[C@@H](CCc1ccccc1)C(=O)O; Cha = N[C@@H](CC1CCCCC1)C(=O)O; aThr = C[C@H](O)[C@H](N)C(=O)O; Carboxymethyl = O=C(O)C*; NMeA = CN[C@@H](C)C(=O)O; Orn = NCCC[C@H](N)C(=O)O; Dab = NCC[C@H](N)C(=O)O

T1 sequence (Q15116 25-288): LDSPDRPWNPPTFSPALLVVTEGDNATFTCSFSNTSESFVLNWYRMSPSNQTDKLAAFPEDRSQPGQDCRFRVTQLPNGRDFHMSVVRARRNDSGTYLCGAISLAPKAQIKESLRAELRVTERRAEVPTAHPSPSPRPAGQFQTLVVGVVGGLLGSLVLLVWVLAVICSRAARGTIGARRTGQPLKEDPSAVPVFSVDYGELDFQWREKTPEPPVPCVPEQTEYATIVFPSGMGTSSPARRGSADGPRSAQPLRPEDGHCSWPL

For `Cc1cccc(C[C@@H]2NC(=O)[C@H](CC(=O)O)NC(=O)[C@H](Cc3ccc(C(=O)O)cc3)NC(=O)[C@H](C)NC(=O)CSC[C@@H](C(=O)N[C@@H](CCN)C(N)=O)NC(=O)[C@H](CCC(=O)O)NC(=O)[C@H](C(C)C)NC(=O)[C@H](CC3CCCCC3)NC(=O)[C@H](CCN)NC(=O)[C@@H](CC(C)C)NC(=O)[C@H](C)N(C)C(=O)[C@H](Cc3ccc(OCC(=O)O)cc3)NC(=O)[C@H](Cc3ccc(-c4ccccc4)cc3)NC(=O)[C@H](Cc3ccc(C(=O)O)cc3)NC2=O)c1` [Example 5138] ({CH2CO}-A[Phe(4-COOH)]D[Phe(3-Me)][Phe(4-COOH)][Bip]Y(Carboxymethyl)[NMeA][dL][Dab][Cha]VEC[Dab]-NH2; thioether N-14), the IC50 under setting [1] is 0.03 µM. In the case of `CC(=O)Nc1ccc(-c2ccc(C[C@@H]3NC(=O)[C@H](Cc4cccc(C(F)(F)F)c4)NC(=O)[C@H](CC(=O)NS(C)(=O)=O)NC(=O)[C@H](Cc4ccc(C(N)=O)cc4)NC(=O)[C@H]([C@H](C)O)NC(=O)CSC[C@@H](C(=O)N[C@@H](CCN)C(N)=O)NC(=O)[C@H](CC(N)=O)NC(=O)[C@H](C(C)C)NC(=O)[C@H](CC4CCCCC4)NC(=O)[C@H](CCN)NC(=O)[C@@H](CC(C)C)NC(=O)[C@H](C)N(C)C(=O)[C@H](Cc4ccc(C(N)=O)cc4)NC(=O)[C@H](Cc4ccc(-c5ccccc5)cc4)NC3=O)cc2)cc1` [Example 5115] ({CH2CO}-[aThr][Phe(4-CONH2)][X5][Phe(3-CF3)][Bip(4'-NHAc)][Bip][Phe(4-CONH2)][NMeA][dL][Dab][Cha]VNC[Dab]-NH2; thioether N-14), the IC50 under setting [1] worked out at 0.28 µM. Regarding `Cc1cccc(C[C@@H]2NC(=O)[C@H](CC(=O)O)NC(=O)[C@H](Cc3ccc(OCC(=O)O)cc3)NC(=O)[C@H](Cc3ccc(O)cc3)NC(=O)CSC[C@@H](C(=O)N[C@@H](CCN)C(N)=O)NC(=O)[C@H](CCCN)NC(=O)[C@H](C(C)C)NC(=O)[C@H](CC3CCCCC3)NC(=O)[C@H](CCN)NC(=O)[C@@H](CC(C)C)NC(=O)[C@H](C)N(C)C(=O)[C@H](CCC(N)=O)NC(=O)[C@H](Cc3ccc(-c4ccccc4)cc3)NC(=O)[C@H](Cc3ccc(C(=O)O)cc3)NC2=O)c1` [Example 5271] ({CH2CO}-YY(Carboxymethyl)D[Phe(3-Me)][Phe(4-COOH)][Bip]Q[NMeA][dL][Dab][Cha]V[Orn]C[Dab]-NH2; thioether N-14), the IC50 (nM, read-out: CBA Method 3) is 0.001 µM. Consider `CC(C)C[C@H]1NC(=O)[C@H](C)N(C)C(=O)[C@H](CCC(N)=O)NC(=O)[C@H](Cc2ccc(-c3ccccc3)cc2)NC(=O)[C@H](Cc2ccc(OCC(=O)O)cc2)NC(=O)[C@H](Cc2cccc(C(F)(F)F)c2)NC(=O)[C@H](CC(=O)O)NC(=O)[C@H](Cc2ccc(O)cc2)NC(=O)[C@H](CC2CCCCC2)NC(=O)CSC[C@@H](C(=O)N[C@@H](CCN)C(N)=O)NC(=O)[C@H](CCCN)NC(=O)[C@H](C(C)C)NC(=O)[C@H](CC2CCCCC2)NC(=O)[C@H](CCN)NC1=O` [Example 5238] ({CH2CO}-[Cha]YD[Phe(3-CF3)]Y(Carboxymethyl)[Bip]Q[NMeA][dL][Dab][Cha]V[Orn]C[Dab]-NH2; thioether N-14), for which the IC50 under setting [1] is 0.01 µM.

In the case of `CC(C)C[C@H]1NC(=O)[C@H](C)N(C)C(=O)[C@H](CCC(N)=O)NC(=O)[C@H](Cc2ccc(-c3ccccc3)cc2)NC(=O)[C@H](CCc2ccccc2)NC(=O)[C@H](Cc2cccc(C(F)(F)F)c2)NC(=O)[C@H](CC(=O)O)NC(=O)[C@H](Cc2ccc(OCC(=O)O)cc2)NC(=O)[C@H](CC2CCCCC2)NC(=O)CSC[C@@H](C(=O)N[C@@H](CCN)C(N)=O)NC(=O)[C@H](CO)NC(=O)[C@H](C(C)(C)O)NC(=O)[C@H](CC2CCCCC2)NC(=O)[C@H](CCN)NC1=O` [Example 5226] ({CH2CO}-[Cha]Y(Carboxymethyl)D[Phe(3-CF3)][hPhe][Bip]Q[NMeA][dL][Dab][Cha][Val(3-OH)]SC[Dab]-NH2; thioether N-14), under setting [1], the IC50 is 0.07 µM.
